Data set [1] has as its system human prostate cancer cells (PC3). The experiment in a line: Assessment of cytotoxicity by SRB assay. The format is cell-based. Particulars: 0.01 μM to 100 μM for 72 h. Here is the method: (§1) The human prostate cancer cells (PC3) and human osteosarcoma cells (MG-63) were obtained from Nawah Scientific Inc. (Mokatam, Cairo, Egypt) and cultured in DMEM (Dulbecco's modified eagle's medium), Gibco, USA, supplemented with fetal bovine serum (FBS) at a concentration of 10% and 100 U/mL of penicillin and streptomycin (PS). The Cells were incubated at 37° C. in a humidified environment that contained 5% CO2.
(§2) Cells were seeded in 96-well plates as aliquots of 100 μL cell suspension and incubated in a complete media for 24 h. afterward, cells were treated with 3-(2-(6-Methoxypyridin-3-yl)-4,5-diphenyl-1H-imidazol-1-yl)-N,N-dimethylpropan-1-amine at diverse concentrations ranging from 0.01 μM to 100 μM for 72 h. Then, cells were fixed at 4° C. for one hour with 150 μL of 10% trichloroacetic acid (TCA). After washing the cells five times with distilled water, 70 μL of sulforhodamine (SRB) solution (0.4% w/v) was added and incubated for 10 min at room temperature in a dark place. […] Then, 150 μL of Tris pH 10.5 (10 mM) was added, and the absorbance was measured at 540 nm using a BMG LABTECH®- FLUOstar Omega microplate reader (Ortenberg, Germany). Half maximal inhibitory concentrations (IC50) values were calculated for each experiment using GraphPad Prism 6 software. […]
(§3) The inhibition was calculated using the following equation: Inhibition %=100-Average Viability
On the technique in general: Sulforhodamine B stains cellular protein and so reports cell mass.

Data set [2] concerns human osteosarcoma cells (MG-63). Description: Assessment of cytotoxicity by SRB assay. The format is cell-based. As to conditions: MG-63 cells, 0.01 μM to 100 μM for 72 h. Here is the method: as §1, §2, §3

SMILES strings stand for the structures.

For orientation: melting point means the temperature, or range, at which the solid turns liquid.

Regarding `COc1ccc(-c2nc(-c3ccccc3)c(-c3ccccc3)n2CCCN(C)C)cn1` [3-(2-(6-Methoxypyridin-3-yl)-4,5-diphenyl-1H-imidazol-1-yl)-N,N-dimethylpropan-1-amine], the melting point fell in the range of 125 to 127 °C. Also, the antiproliferative activities entry in data set [1] is listed as “excellent antiproliferative activities”. The antiproliferative activities entry in data set [2] is on record as “excellent antiproliferative activities”.

(Values after US11932619B1, “3-(2-(6-Methoxypyridin-3-yl)-4,5-diphenyl-1H-imidazol-1-yl)-N,N-dimethylpropan-1-amine as an anticancer compound” (KING FAISAL UNIVERSITY, priority 2023, dated 2024).)
